Laboratory results from BindingDB's records for doi:10.1016/j.bioorg.2016.11.008 (Beni-Suef University, 2017).
Where “and” joins values, the source holds several entries; their conditions need not be identical. Equal values may be shown once.

Tests used:
[1] = target: T1, Prostaglandin G/H synthase 2 (Ovis aries, UniProt P79208); assay: COX-1/COX-2 Inhibition Colorimetric Assay
T1 sequence (P79208 whole entry): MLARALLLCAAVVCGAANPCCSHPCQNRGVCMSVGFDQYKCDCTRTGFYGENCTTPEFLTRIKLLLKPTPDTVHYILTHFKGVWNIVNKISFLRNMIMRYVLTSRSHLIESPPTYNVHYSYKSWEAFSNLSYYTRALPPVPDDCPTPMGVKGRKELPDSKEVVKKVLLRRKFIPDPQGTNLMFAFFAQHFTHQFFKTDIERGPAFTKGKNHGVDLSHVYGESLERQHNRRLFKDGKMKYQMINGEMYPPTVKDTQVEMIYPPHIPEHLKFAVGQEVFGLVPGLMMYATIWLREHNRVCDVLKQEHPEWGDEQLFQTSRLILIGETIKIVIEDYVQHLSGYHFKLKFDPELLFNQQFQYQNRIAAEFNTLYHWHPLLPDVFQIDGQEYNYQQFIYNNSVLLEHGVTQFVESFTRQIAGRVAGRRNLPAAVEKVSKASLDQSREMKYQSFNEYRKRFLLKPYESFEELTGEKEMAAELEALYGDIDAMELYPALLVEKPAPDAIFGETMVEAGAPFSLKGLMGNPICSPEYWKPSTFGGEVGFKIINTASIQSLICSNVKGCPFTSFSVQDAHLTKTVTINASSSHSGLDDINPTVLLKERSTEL
Description: (§1) The in vitro inhibition of ovine COX-1 and COX-2 was measured using an enzyme immuno assay (EIA) kit (Cayman Chemical, Ann Arbor, MI, USA) according to the manufacturer's instructions and as reported before [Roschek et al., J. Med. Food., 12:615-623].

[2] = target: T2, Prostaglandin G/H synthase 1 (Ovis aries, UniProt P05979); assay: COX-1/COX-2 Inhibition Colorimetric Assay
T2 sequence (P05979 whole entry): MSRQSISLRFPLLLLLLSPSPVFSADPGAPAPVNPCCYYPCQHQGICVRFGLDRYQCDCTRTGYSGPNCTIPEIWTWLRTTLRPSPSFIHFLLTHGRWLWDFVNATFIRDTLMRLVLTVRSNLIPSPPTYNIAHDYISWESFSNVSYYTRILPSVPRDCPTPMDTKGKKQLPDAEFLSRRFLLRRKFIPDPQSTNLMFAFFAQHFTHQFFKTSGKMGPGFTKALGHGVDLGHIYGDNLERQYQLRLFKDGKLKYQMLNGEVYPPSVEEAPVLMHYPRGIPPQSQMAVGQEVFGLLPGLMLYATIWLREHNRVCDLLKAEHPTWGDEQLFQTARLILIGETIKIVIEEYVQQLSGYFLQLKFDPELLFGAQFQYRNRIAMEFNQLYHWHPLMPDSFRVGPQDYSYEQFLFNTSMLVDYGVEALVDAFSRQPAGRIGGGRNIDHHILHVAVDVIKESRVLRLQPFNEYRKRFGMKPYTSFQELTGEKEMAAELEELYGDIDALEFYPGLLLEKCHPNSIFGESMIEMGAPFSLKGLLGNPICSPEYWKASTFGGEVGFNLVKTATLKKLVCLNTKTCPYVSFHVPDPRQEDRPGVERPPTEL
Description: as §1

SMILES	IC50 [1]	IC50 [2]
COc1ccc(C2CC(c3ccc(Br)cc3)=NN2c2ccc(S(C)(=O)=O)cc2)cc1 (configuration not stated) [3-(4-Bromo-phenyl)-1-(4-methanesulfonyl-phenyl)-5-(4-methoxy-phenyl)-4,5-dihydro-1H-pyrazole (10k)]	630 nM	4.85 µM
COc1cc(C2CC(c3ccc(Br)cc3)=NN2c2ccc(S(N)(=O)=O)cc2)cc(OC)c1OC (configuration not stated) [4-[3-(4-Bromo-phenyl)-5-(3,4,5-trimethoxy-phenyl)-4,5-dihydropyrazol-1-yl]-benzene-sulfonamide (10a)]	780 nM	7.52 µM
NS(=O)(=O)c1ccc(N2N=C(c3ccc(Br)cc3)CC2c2ccc(Cl)cc2)cc1 (configuration not stated) [4-[3-(4-Bromo-phenyl)-5-(4-chloro-phenyl)-4,5-dihydro-pyrazol-1-yl]-benzene-sulfonamide (10c)]	1430 nM	6.87 µM
COc1ccc(C2CC(c3ccc(Cl)cc3)=NN2c2ccc(S(N)(=O)=O)cc2)cc1 (configuration not stated)	740 nM	6.52 µM
COc1cc(C2CC(c3ccc(Cl)cc3)=NN2c2ccc(S(N)(=O)=O)cc2)cc(OC)c1OC (configuration not stated) [4-[3-(4-Chloro-phenyl)-5-(3,4,5-trimethoxy-phenyl)-4,5-dihydropyrazol-1-yl]-benzene-sulfonamide (10b)]	220 nM	3.41 µM
COc1ccc(C2CC(c3ccc(Br)cc3)=NN2c2ccc(S(N)(=O)=O)cc2)cc1 (configuration not stated) [UNM-0000306138]	630 nM	5.17 µM
CS(=O)(=O)c1ccc(N2N=C(c3ccc(Cl)cc3)CC2c2ccc(Cl)cc2)cc1 (configuration not stated) [3,5-Bis-(4-chloro-phenyl)-1-(4-methanesulfonyl-phenyl)-4,5-dihydro-1H-pyrazole (10j)]	1520 nM	9.89 µM
COc1cc(C2CC(c3ccc(Cl)cc3)=NN2c2ccc(S(C)(=O)=O)cc2)cc(OC)c1OC (configuration not stated) [3-(4-Chloro-phenyl)-1-(4-methanesulfonyl-phenyl)-5-(3,4,5-trimethoxy-phenyl)-4,5-dihydro-1H-pyrazole (10h)]	420 nM and 2980 nM	3.87 µM and 8.34 µM
COc1ccc(C2CC(c3ccc(Cl)cc3)=NN2c2ccc(S(C)(=O)=O)cc2)cc1 (configuration not stated) [3-(4-Chloro-phenyl)-1-(4-methanesulfonyl-phenyl)-5-(4-methoxy-phenyl)-4,5-dihydro-1H-pyrazole (10l)]	3410 nM	10.2 µM
COc1cc(C2CC(c3ccc(Br)cc3)=NN2c2ccc(S(C)(=O)=O)cc2)cc(OC)c1OC (configuration not stated) [3-(4-Bromo-phenyl)-1-(4-methanesulfonyl-phenyl)-5-(3,4,5-trimethoxy-phenyl)-4,5-dihydro-1H-pyrazole (10g)]	980 nM	8.65 µM
NS(=O)(=O)c1ccc(N2N=C(c3ccc(Cl)cc3)CC2c2ccc(Cl)cc2)cc1 (configuration not stated) [4-[3-(4-Chloro-phenyl)-5-(4-chloro-phenyl)-4,5-dihydro-pyrazol-1-yl]-benzene-sulfonamide (10d)]	900 nM	5.11 µM
